According to patent US20250376441A1, “NOVEL COMPOUND AND PHARMACEUTICAL COMPOSITION COMPRISING SAME AS ACTIVE INGREDIENT” (Industry-Academic Cooperation Foundation, Yonsei University, priority 2017, published 2025):
Where “and” joins values, the source holds several entries; their conditions need not be identical. Equal values may be shown once. Read-outs that look alike come from different tables or passages of the source.

Key:
[1] = system: amyloid-beta peptide1-42 degenerative neurological disease-induced mice; test: Passive avoidance response test; type: in vivo, ICR mice; conditions: p<0.05 vs beta-amyloid group
Procedure: (§1) In order to induce a degenerative neurological disease, the experimental animals of Preparatory Example 1 were anesthetized by inhalation with 2.5% isoflurane. Then, 1 μg of amyloid-beta peptide1-42, a degenerative neurological disease-inducing substance, was administered to the animals at both hippocampal positions (AP: −2.3, L: ±2.0, H: −1.5) using a stereotaxic apparatus. […] For the administration, 1 μl was injected, at a flow rate of 0.2 μl/min, with a […] gas-tight glass syringe (Hamilton, Reno, NV, USA) using a perfusion pump (Pump 22, Harvard Apparatus, South Natick, MA, USA). Subsequently, the syringe was allowed to stand for 5 minutes and then removed.
(§2) Then, a degenerative neurological disease was induced as in Preparation Example 2.
Under a situation where a chamber with a bright light and a dark chamber were connected to each other via a small passage, 4 hours before the experiment, the experimental animals were placed in the chamber with a bright light. The experimental animals instinctively enter the dark chamber. However, after 4 hours of fear learning carried out by using an electric shock to give aversive stimulus, in a case where the experimental animals are placed in the chamber with a bright light, the time until the experimental animals enter the dark chamber was measured and quantified. The results are illustrated in FIG. 10.

Half-life test = test: Half-life test
Excerpt: In order to identify whether the Preparation Example 6 according to the present invention can be orally administered, a half-life of the compound was checked. […] The results are illustrated in FIG. 18.

[2] = Solubility by nephelometry; type: physicochemical; conditions: 5% DMSO in water, aqueous with cosolvent or surfactant or cyclodextrin, kinetic from dmso stock, DMSO 5%/water solvent
Procedure: For a preliminary examination on clinical application of the Preparation Example 6, evaluation on lipophilicity and solubility was performed.

[3] = system: amyloid-beta peptide1-42 degenerative neurological disease-induced mice; test: Rotarod test; type: in vivo, ICR mice; conditions: p<0.05 vs beta-amyloid group
Procedure: as §1, §2
As an experiment for evaluating effects of the samples on decreased motor coordination ability and motor sensation associated with a degenerative neurological disease, a rotarod experiment which examines the overall motor function of the test groups was conducted. The experimental method was as follows. […] After 24 hours, the time to lose balance and fall off the rotating cylinder of the same condition was measured, and the result is illustrated in FIG. 11.

[4] = system: Salmonella typhimurium TA98; test: Ames reverse mutation test, TA98
Procedure: For each strain, treatment with a single concentration of 200 μg/plate was performed in triplicate and mutation was checked.

HFL-1 = test: Cytotoxicity test (Cyto X cell viability assay kit), HFL-1; type: cell-based; conditions: Homo sapiens, HFL1
Procedure: (§3) In order to identify whether the Preparation Example 6 according to the present invention is toxic to cells, a cytotoxicity test was conducted at the Korea Research Institute of Chemical Technology using the Cyto X™ cell viability assay kit ([…]).

hERG channel = hERG channel (Homo sapiens, UniProt Q12809); test: Cardiac stability test, hERG ligand binding assay; conditions: read-out: Inhibition rate
hERG channel, sequence (Q12809 whole entry): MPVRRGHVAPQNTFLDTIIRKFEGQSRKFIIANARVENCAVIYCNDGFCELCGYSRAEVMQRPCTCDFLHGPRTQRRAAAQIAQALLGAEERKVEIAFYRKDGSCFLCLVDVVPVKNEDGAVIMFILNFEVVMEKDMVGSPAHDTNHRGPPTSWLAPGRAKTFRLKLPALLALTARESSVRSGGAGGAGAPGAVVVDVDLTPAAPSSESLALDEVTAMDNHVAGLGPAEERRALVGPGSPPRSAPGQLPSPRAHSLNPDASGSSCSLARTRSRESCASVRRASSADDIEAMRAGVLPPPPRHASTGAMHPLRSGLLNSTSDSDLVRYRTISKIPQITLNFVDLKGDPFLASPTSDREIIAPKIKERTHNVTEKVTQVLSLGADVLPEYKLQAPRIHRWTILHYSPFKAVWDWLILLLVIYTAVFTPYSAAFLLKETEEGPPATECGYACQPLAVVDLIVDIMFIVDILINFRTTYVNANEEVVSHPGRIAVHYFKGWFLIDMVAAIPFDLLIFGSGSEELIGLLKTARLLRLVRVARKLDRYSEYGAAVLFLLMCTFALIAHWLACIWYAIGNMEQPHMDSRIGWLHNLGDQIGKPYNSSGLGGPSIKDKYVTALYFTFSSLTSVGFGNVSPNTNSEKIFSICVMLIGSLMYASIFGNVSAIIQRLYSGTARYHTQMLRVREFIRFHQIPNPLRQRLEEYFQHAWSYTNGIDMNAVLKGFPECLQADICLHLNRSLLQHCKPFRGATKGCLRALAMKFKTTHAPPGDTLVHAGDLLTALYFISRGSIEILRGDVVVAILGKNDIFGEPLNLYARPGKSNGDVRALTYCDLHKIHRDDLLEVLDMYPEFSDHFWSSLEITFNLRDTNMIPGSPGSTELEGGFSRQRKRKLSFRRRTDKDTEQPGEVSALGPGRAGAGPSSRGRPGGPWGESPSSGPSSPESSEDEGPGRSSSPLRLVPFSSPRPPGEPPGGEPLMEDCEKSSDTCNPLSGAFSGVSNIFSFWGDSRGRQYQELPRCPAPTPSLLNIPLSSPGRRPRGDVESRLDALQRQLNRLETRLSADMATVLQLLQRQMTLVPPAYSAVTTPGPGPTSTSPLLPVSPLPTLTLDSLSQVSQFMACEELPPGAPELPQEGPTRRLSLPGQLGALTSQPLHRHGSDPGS

L929 = test: Cytotoxicity test (Cyto X cell viability assay kit), L929; type: cell-based; conditions: Mus musculus
Procedure: as §3

[5] = system: amyloid-beta peptide1-42 degenerative neurological disease-induced mice; test: Morris water maze test; type: in vivo, ICR mice
Excerpt: Six-week-old ICR mice (male) were purchased, and then examined for general health for 6 days while subjecting them to quarantine and acclimation under an environment of animal breeding room. Then, healthy individuals were selected and used for the experiment. Identification of each individual was made by marking the number of each individual on the tail using a permanent marker, and identification of a breeding box was made by attaching an individual identification card on which test number, test substance name, test item, date of acquisition, acclimation period, date of grouping, test period, sex/animal number, and person in charge are indicated.
as §1, §2
After induction of the degenerative neurological disease, the following test was conducted after a one-day recovery period passed.
A circular pool (diameter: 120 cm, height: 75 cm) was filled with water to a depth of 25±1 cm as in FIG. 4, and a 24 cm platform was prepared by hiding it 1 cm below the water surface. Space cues were installed on the four sides of the wall so that the aminals can identify locations, and skimmed milk powder was dissolved into water so that the animals cannot identify the platform with naked eyes. One day before the experiment, all the experimental animals were allowed to swim freely for 1 minute in a water bath having no platform, so that the animals can adapt to the swimming situation. After that, a test group was allowed to start, in any order, from two of the three quadrants except the quadrant where the platform was placed, and allowed to find the platform for 60 seconds. In a case where an animal finds the platform, the animal was allowed to stay thereon for 20 seconds. […] As soon as end of the position learning time, which is the 20-second staying time, the animal was allowed to start again from any quadrant, and the time and distance to reach the platform were measured. The procedure was performed four times a day, and all procedures were taken with a camera and analyzed with a video tracking system (Panlab, USA). Probe trials were made on the fifth day after the four-day experiment in toal was completed. The test group was allowed to swim freely for 90 seconds without the platform, thereby performing evaluation on whether the test group holds a memory of the platform location. The results are illustrated in FIGS. 5 to 7.

VERO = test: Cytotoxicity test (Cyto X cell viability assay kit), VERO; type: cell-based; conditions: Chlorocebus sabaeus
Procedure: as §3

SMILES: COc1ccc(OC)c(/C=C/C(=O)c2ccc(NS(=O)(=O)c3ccc(Cl)cc3)cc2)c1 [Preparation Example 6, (E)-4-Chloro-N-(4-(3-(2,5-dimethoxyphenyl)acryloyl)phenyl)benzenesulfonamide]
- staying time in the chamber with a bright light ([1]; 10 mg): 156.87 ± 50.95 s
- staying time in the chamber with a bright light ([1]; 100 mg): 153.48 ± 34.71 s
- half-life (Half-life test): ≥ 3 h
- solubility [2]: 206 µM and 94.4 µg/mL
- time to keep balance on the rotating cylinder ([3]; 10 mg): 48.62 ± 10.54 s
- time to keep balance on the rotating cylinder ([3]; 100 mg): 47.65 ± 8.13 s
- Ames reverse mutation test outcome ([4]; TA98, 200 μg/plate, with or without S9): negative
- Reverse mutation [factor] with S-9 mix ([4]; TA98, with S-9, factor versus control): [1.5]
- Reverse mutation/dish (mean ± SD) with S-9 mix ([4]; TA98, with S-9, Preparation Example 6 at 200 μg/plate, Benzo(a)pyrene concentration 2): 35 ± 2
- Reverse mutation [factor] w/o S-9 mix ([4]; TA98, without S-9, factor versus control): [1.1]
- Reverse mutation/dish (mean ± SD) w/o S-9 mix ([4]; TA98, without S-9, Preparation Example 6 at 200 μg/plate, 2-Nitrofluorene concentration 2): 20 ± 4
- IC50 (HFL-1): > 100 µM
- inhibition at 10 µM (hERG channel; hERG channel (ligand binding assay)): < 1%
- inhibition at 10 µM (hERG channel): ≤ 1%
- IC50 (L929): > 100 µM
- maximum platform escape latency ([5]; 1 mg): 136.45 (±26.02) seconds
- minimum time to find the platform ([5]; 1 mg): 44.45 (±13.35) seconds
- escape latency, fourth trial (short-term memory) ([5]; 1 mg, fourth day, p<0.05): 44.45 ± 13.35 s
- escape latency, first trial (long-term memory) ([5]; 1 mg, fourth day, p<0.05 vs beta-amyloid group): 73.58 ± 9.14 s
- maximum platform escape latency ([5]; 10 mg): 128.59 (±23.32) seconds
- minimum time to find the platform ([5]; 10 mg): 40.64 (±10.94) seconds
- escape latency, fourth trial (short-term memory) ([5]; 10 mg, first day, p<0.05): 76.14 ± 13.27 s
- escape latency, fourth trial (short-term memory) ([5]; 10 mg, fourth day, p<0.05): 40.64 ± 10.94 s
- escape latency, first trial (long-term memory) ([5]; 10 mg, fourth day, p<0.05 vs beta-amyloid group): 65.22 ± 13.65 s
- escape latency, fourth trial (short-term memory) ([5]; 10 mg, second day, p<0.05): 59.87 ± 12.56 s
- escape latency, first trial (long-term memory) ([5]; 10 mg, second day, p<0.05 vs beta-amyloid group): 95.05 ± 18.06 s
- escape latency, fourth trial (short-term memory) ([5]; 10 mg, third day, p<0.05): 54.07 ± 14.38 s
- escape latency, first trial (long-term memory) ([5]; 10 mg, third day, p<0.05 vs beta-amyloid group): 91.66 ± 12.68 s
- maximum platform escape latency ([5]; 100 mg): 125.66 (±19.35) seconds
- minimum time to find the platform ([5]; 100 mg): 36.48 (±9.54) seconds
- escape latency, fourth trial (short-term memory) ([5]; 100 mg, first day, p<0.05): 73.79 ± 12.15 s
- escape latency, fourth trial (short-term memory) ([5]; 100 mg, fourth day, p<0.01): 36.48 ± 9.54 s
- escape latency, first trial (long-term memory) ([5]; 100 mg, fourth day, p<0.05 vs beta-amyloid group): 64.7 ± 12.63 s
- escape latency, first trial (long-term memory) ([5]; 100 mg, second day, p<0.01 vs beta-amyloid group): 91.66 ± 12.68 s
- escape latency, fourth trial (short-term memory) ([5]; 100 mg, second day, p<0.05): 59.62 ± 8.22 s
- escape latency, fourth trial (short-term memory) ([5]; 100 mg, third day, p<0.01): 47.74 ± 10.81 s
- escape latency, first trial (long-term memory) ([5]; 100 mg, third day, p<0.05 vs beta-amyloid group): 83.41 ± 11.46 s
- IC50 (VERO): 83.6 µM
